Results published in US20230382894A1, “CCR4 ANTAGONISTS” (CHEMOCENTRYX, INC., priority 2022, published 2023).

Molecular target: T1, CCR4 (Homo sapiens, UniProt P51679)
T1 construct: CEM Cells Endogenous Express CCR4; endogenous in cells; host or cells: CEM cells
T1 sequence (P51679 1-360): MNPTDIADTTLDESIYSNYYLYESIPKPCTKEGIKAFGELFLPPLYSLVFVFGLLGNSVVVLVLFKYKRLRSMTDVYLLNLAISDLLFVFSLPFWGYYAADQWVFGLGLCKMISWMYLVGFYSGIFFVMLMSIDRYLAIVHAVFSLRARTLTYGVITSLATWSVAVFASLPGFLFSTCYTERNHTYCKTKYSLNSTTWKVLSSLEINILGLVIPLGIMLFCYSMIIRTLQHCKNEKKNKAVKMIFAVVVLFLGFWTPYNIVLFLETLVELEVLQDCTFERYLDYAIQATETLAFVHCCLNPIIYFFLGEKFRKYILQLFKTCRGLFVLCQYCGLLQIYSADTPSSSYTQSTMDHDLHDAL
Experiment: CEM cell chemotaxis (migration) assay to CCL22 (MDC) in 100% Fetal Bovine Serum (FBS)
Type: cell-based
Details: CEM cells in 100% FBS with 1% HEPEs; recombinant human CCL22 0.1 nM; 37° C. 60 minutes
Description: CEM Cells Endogenous Express CCR4
A chemotaxis assay can be used to determine the efficacy of potential receptor antagonists at blocking the migration mediated through chemokine receptors, such as CCR4. This assay is routinely performed using the ChemoTX® microchamber system with a 5 μm pore-sized polycarbonate membrane.
FBS: CEM Cells are collected by centrifugation at 400×g at room temperature, then suspended at 5 million/ml in 100% Fetal Bovine Serum (FBS) with 1% HEPEs. The compound being tested is serially diluted from a maximum final concentration of 10 μM (or an equivalent volume of its solvent (DMSO)) and is then added to the cell/buffer mixture. Separately, recombinant human CCL22 (MDC) at its EC50 concentration (0.1 nM) is placed in the lower wells of the ChemoTX® plate. The 5-μm (pore size) polycarbonate membrane was placed onto the plate, and 20 μL of the cell/compound mixture is transferred onto each well of the membrane. The plates are incubated at 37° C. for 60 minutes, after which the polycarbonate membranes are removed and 5 μl of the DNA-intercalating dye CyQUANT (Invitrogen, Carlsbad, CA) is added to the lower wells. The amount of fluorescence, corresponding to the number of migrated cells, is measured using a Spectrafluor Plus plate reader (TECAN, San Jose, CA).

Row | IC50 [nM] | Serum IC50 (FBS) | Compound
1 | < 100 | – | CCOc1cnc(N2CCN(C(=O)[C@H]3CCCN3)CC2)nc1N[C@H](C)c1ccc(Cl)cc1Cl [Example 1.181]
2 | < 100 | – | CCOc1cnc(N2CCN(C(=O)[C@H]3CCC(=O)N3)CC2)nc1N[C@H](C)c1ccc(Cl)cc1Cl [Example 1.182]
3 | < 100 | – | CCOc1cnc(N2CCN(C(=O)CCN(C)C)CC2)nc1N[C@H](C)c1ccc(Cl)cc1Cl [Example 1.183]
4 | < 100 | – | CCOc1cnc(N2CCN(C(=O)[C@H]3CCN(C)C3)CC2)nc1N[C@H](C)c1ccc(Cl)cc1Cl [Example 1.184]
5 | < 100 | – | C[C@@H](Nc1nc(N2CCN(C(=O)CCN3CCCC3)CC2)ncc1Cl)c1ccc(Cl)cc1Cl [Example 1.185]
6 | < 100 | – | C[C@@H](Nc1nc(N2CCC(O[C@@H]3CNC[C@H]3F)CC2)ncc1Cl)c1ccc(Cl)cc1Cl [Example 1.186]
7 | < 100 | – | COc1cnc(N2CCN(C(=O)CCN(C)C)CC2)nc1N[C@H](C)c1ccc(Cl)cc1Cl [Example 1.187]
8 | < 100 | – | COc1cnc(N2CCN(C(=O)[C@H]3CCC(=O)N3)CC2)nc1N[C@H](C)c1ccc(Cl)cc1Cl [Example 1.188]
9 | < 100 | – | COc1cnc(N2CCN(C(=O)[C@H]3CCN(C)C3)CC2)nc1N[C@H](C)c1ccc(Cl)cc1Cl [Example 1.189]
10 | < 100 | – | C[C@@H](Nc1nc(N2CCC(O[C@@H]3CNC[C@@H]3F)CC2)ncc1Cl)c1ccc(Cl)cc1Cl [Example 1.190]
11 | 100 to 1000 | – | C[C@@H](Nc1nc(N2CCN(C(=O)CCN3CCCC3=O)CC2)ncc1Cl)c1ccc(Cl)cc1Cl [Example 1.191]
12 | < 100 | – | C[C@@H](Nc1nc(N2CCN(C(=O)CN3CCCC3)CC2)ncc1Cl)c1ccc(Cl)cc1Cl [Example 1.192]
13 | < 100 | – | C[C@@H](Nc1nc(N2CCC(O[C@H]3CCN(CCO)C3)CC2)ncc1Cl)c1ccc(Cl)cc1Cl [Example 1.193]
14 | 100 to 1000 | – | C[C@@H](Nc1nc(N2CC[C@H](N(C)C(=O)[C@H]3CCCN3)[C@@H](O)C2)ncc1Cl)c1ccc(Cl)cc1Cl [Example 1.194]
15 | 100 to 1000 | – | C[C@@H](Nc1nc(N2CCN(C(=O)[C@H]3CC4(CC4)C(=O)N3)CC2)ncc1Cl)c1ccc(Cl)cc1Cl [Example 1.195]
16 | 100 to 1000 | – | C[C@@H](Nc1nc(N2CCN(C(=O)CCN3CCOCC3)CC2)ncc1Cl)c1ccc(Cl)cc1Cl [Example 1.196]
17 | < 100 | – | COc1cnc(N2CCN(C(=O)[C@H]3CCCN3)CC2)nc1N[C@H](C)c1ccc(Cl)cc1Cl [Example 1.197]

Row | IC50 [nM] | Serum IC50 (FBS) | Compound
18 | < 100 | – | C[C@@H](Nc1nc(N2CCN(C(=O)[C@H]3CCC(=O)N3)CC2)ncc1Cl)c1c(F)cc(Cl)cc1Cl [Example 1.198]
19 | 100 to 1000 | – | C[C@@H](Nc1nc(N2CCC(OC3CNC3)CC2)ncc1Cl)c1ccc(Cl)cc1Cl [Example 1.199]
20 | < 100 | – | C[C@@H](Nc1nc(N2CCN(C(=O)[C@H]3CCCNC3)CC2)ncc1Cl)c1ccc(Cl)cc1Cl [Example 1.201]
21 | < 100 | – | C[C@@H](Nc1nc(N2CCN(C(=O)[C@H]3CCC(=O)N3)CC2)ncc1Cl)c1cc(F)c(Cl)cc1Cl [Example 1.202]
22 | 100 to 1000 | – | C[C@@H](Nc1nc(N2CC[C@H](NC(=O)CN(C)C)[C@@H](O)C2)ncc1Cl)c1ccc(Cl)cc1Cl [Example 1.203]
23 | < 100 | – | C[C@H]1CC[C@H](C(=O)N2CCN(c3ncc(Cl)c(N[C@H](C)c4ccc(Cl)cc4Cl)n3)CC2)N1 [Example 1.204]
24 | 100 to 1000 | – | C[C@@H](Nc1nc(N2CCN(C(=O)C3(N)CCOCC3)CC2)ncc1Cl)c1ccc(Cl)cc1Cl [Example 1.205]
25 | < 100 | – | C[C@@H](Nc1nc(N2CC[C@H](NC(=O)[C@H]3CCN(C)C3)[C@@H](O)C2)ncc1Cl)c1ccc(Cl)cc1Cl [Example 1.206]
26 | 100 to 1000 | – | C[C@@H](Nc1nc(N2CCN(C(=O)[C@H]3CCCN3)CC2)ncc1C#N)c1ccc(Cl)cc1Cl [Example 1.207]
27 | < 100 | – | C[C@@H](Nc1nc(N2CCN(C(=O)[C@]3(C)CCCN3)CC2)ncc1Cl)c1ccc(Cl)cc1Cl [Example 1.208]
28 | 100 to 1000 | – | C[C@@H](Nc1nc(N2CCN(C(=O)C3CNC(=O)CN3)CC2)ncc1Cl)c1ccc(Cl)cc1Cl (stereo partly drawn) [Example 1.209]
29 | < 100 | – | C[C@@H](Nc1nc(N2CCN(C(=O)[C@@]3(C)CCCN3)CC2)ncc1Cl)c1ccc(Cl)cc1Cl [Example 1.210]
30 | < 100 | – | C[C@@H](Nc1nc(N2CCC(O[C@@H]3CCNC3)CC2)ncc1Cl)c1ccc(Cl)cc1Cl [Example 1.211]
31 | > 1000 | – | C[C@@H](Nc1nc(N2CCN(C(=O)C3(N)COC3)CC2)ncc1Cl)c1ccc(Cl)cc1Cl [Example 1.212]
32 | 100 to 1000 | – | C[C@@H](Nc1nc(N2CCN(C(=O)[C@H](N)CO)CC2)ncc1Cl)c1ccc(Cl)cc1Cl [Example 1.213]
33 | < 100 | – | CC(C)N1CCCC(C2CCN(c3ncc(Cl)c(N[C@H](C)c4ccc(Cl)cc4Cl)n3)CC2)C1 (stereo partly drawn) [Example 1.214]
34 | 100 to 1000 | – | COC[C@@H](N)C(=O)N1CCN(c2ncc(Cl)c(N[C@H](C)c3ccc(Cl)cc3Cl)n2)CC1 [Example 1.215]

More lines, now with the values behind:

Row | Compound | IC50 [nM] | Serum IC50 (FBS)
35 | C[C@@H](Nc1nc(N2CC[C@H](NC(=O)[C@H]3CCCN3)[C@@H](O)C2)ncc1OC(F)F)c1ccc(Cl)cc1Cl [Example 1.155] | < 100 | –
36 | COc1cnc(N2CCN(C(=O)[C@H]3CCCN3C)CC2)nc1N[C@H](C)c1ccc(Cl)cc1Cl [Example 1.156] | < 100 | –
37 | C[C@@H](Nc1nc(N2CCN(C(=O)[C@H]3CCCN3)CC2)ncc1F)c1ccc(Cl)cc1Cl [Example 1.157] | < 100 | –
38 | COc1cnc(N2CCC(C3CCCN(CCO)C3)CC2)nc1N[C@H](C)c1ccc(Cl)cc1Cl (stereo partly drawn) [Example 1.158] | < 100 | –
39 | C[C@@H](Nc1nc(C2CCN(C(=O)[C@H]3CCCN3)CC2)ncc1Cl)c1ccc(Cl)cc1Cl [Example 1.159] | < 100 | –
40 | C[C@@H](Nc1nc(C2CCN(C(=O)[C@H]3CCC(=O)N3)CC2)ncc1Cl)c1ccc(Cl)cc1Cl [Example 1.160] | > 1000 | –
41 | CC(C)Oc1cnc(N2CCN(C(=O)C[C@@H]3CCCN3)CC2)nc1N[C@H](C)c1ccc(Cl)cc1Cl [Example 1.161] | < 100 | –
42 | C[C@@H](Nc1nc(C2=CCN(C(=O)[C@H]3CCC(=O)N3)CC2)ncc1Cl)c1ccc(Cl)cc1Cl [Example 1.162] | < 100 | –
43 | COc1cnc(N2CCN(C(=O)[C@H]3CCNC3)CC2)nc1N[C@H](C)c1ccc(Cl)cc1Cl [Example 1.163] | – | + ++
44 | COc1cnc(N2CCN(C(=O)C[C@H]3CCCN3)CC2)nc1N[C@H](C)c1ccc(Cl)cc1Cl [Example 1.164] | < 100 | –
45 | COc1cnc(N2CCN(C(=O)C3CCN(C)CC3)CC2)nc1N[C@H](C)c1ccc(Cl)cc1Cl [Example 1.165] | < 100 | –
46 | C[C@@H](Nc1nc(N2CCN(C(=O)C[C@H]3CCCN3)CC2)ncc1OC(F)F)c1ccc(Cl)cc1Cl [Example 1.166] | < 100 | –
47 | C[C@@H](Nc1nc(N2CCN(C(=O)[C@H]3CCCN3)CC2)ncc1O)c1ccc(Cl)cc1Cl [Example 1.167] | < 100 | –
48 | COc1cnc(N2CCN(C(=O)C[C@@H]3CCCN3C)CC2)nc1N[C@H](C)c1ccc(Cl)cc1Cl [Example 1.168] | < 100 | –
49 | C[C@@H](Nc1nc(N2CCN(C(=O)C[C@@H]3CCCN3C)CC2)ncc1Cl)c1ccc(Cl)cc1Cl [Example 1.169] | < 100 | –
50 | COc1cnc(N2CCC(N(C)C(=O)[C@H]3CCCN3)CC2)nc1N[C@H](C)c1ccc(Cl)cc1Cl [Example 1.170] | < 100 | –
51 | C[C@@H](Nc1nc(N2CCN(C(=O)[C@H]3CCC(=O)N3)CC2)ncc1OC(F)F)c1ccc(Cl)cc1Cl [Example 1.171] | < 100 | –
52 | C[C@@H](Nc1nc(N2CCN(C(=O)[C@H]3CCCN3)CC2)ncc1OC(F)F)c1ccc(Cl)cc1Cl [Example 1.172] | < 100 | –
53 | COc1cnc(N2CCN(C(=O)[C@H]3CC[C@@H](C)N3)CC2)nc1N[C@H](C)c1ccc(Cl)cc1Cl [Example 1.173] | < 100 | –
54 | CC(C)Oc1cnc(N2CCN(C(=O)[C@H]3CCCN3)CC2)nc1N[C@H](C)c1ccc(Cl)cc1Cl [Example 1.174] | < 100 | –
55 | COc1nc(N2CCN(C(=O)[C@H]3CCCN3)CC2)nc(N[C@H](C)c2ccc(Cl)cc2Cl)c1Cl [Example 1.175] | < 100 | –
56 | COc1cnc(N2CCC(NC(=O)[C@H]3CCCN3)CC2)nc1N[C@H](C)c1ccc(Cl)cc1Cl [Example 1.176] | < 100 | –
57 | COc1cnc(N2CCN(C(=O)C[C@@H]3CCCN3)CC2)nc1N[C@H](C)c1ccc(Cl)cc1Cl [Example 1.177] | < 100 | –
58 | C[C@@H](Nc1nc(N2CCC(O[C@H]3CCN(C)C3)CC2)ncc1Cl)c1ccc(Cl)cc1Cl [Example 1.178] | < 100 | –
59 | COc1cnc(N2CC[C@H](NC(=O)[C@H]3CCCN3)[C@@H](O)C2)nc1N[C@H](C)c1ccc(Cl)cc1Cl [Example 1.179] | < 100 | –
60 | C[C@@H](Nc1nc(N2CCN(C(=O)C[C@@H]3CCCN3)CC2)ncc1Cl)c1ccc(Cl)cc1Cl [Example 1.180] | < 100 | –
